{"source": "patent US11369653B2", "about": "“Traditional Chinese medicine composition for treating cardiovascular and cerebrovascular disease, preparation method therefor and use thereof” (priority 2018, dated 2022)", "key": {"[1]": {"tested_on": "arteriovenous bypass thrombosis in rats", "assay": "Arteriovenous bypass thrombosis in rats", "format": "in vivo", "details": "SD rats, 6.75 mg/kg by gavage for 15 days", "protocol": "After 5 days of adaptive feeding, the animals were randomly divided into blank control group, positive control group (Plavix group, 6.75 mg/kg), and four test substance groups (100, 200, 400 and 800 mg/kg), with 20 rats in each group. The animals were administered by gavage for 15 consecutive days, once a day.\nAfter the last administration, 3% Pentobarbital Sodium was injected intraperitoneally for anesthesia (40 mg/kg). The right common carotid artery and left external jugular vein were separated. A 6 cm long medical surgical suture (No. 0) was placed in the middle of a polyethylene tube, which was filled with normal saline and inserted into the right common carotid artery and the left external jugular vein respectively to form an arteriovenous vascular loop. After 15 minutes, the blood flow was cut off, and the suture was taken out and weighed.\nIn this experiment, the classical rat arteriovenous bypass was used to form the bypass arteriovenous blood flow. When the platelets in the arterial blood flow contact the rough surface of the suture, they adhere to the suture, and the platelet aggregation forms platelet thrombosis around the surface of the suture. When platelet adhesion and aggregation function is inhibited, the weight of thrombosis become smaller. Therefore, the adhesion and aggregation function of platelets can be measured by thrombus weight."}, "[2]": {"tested_on": "thrombin induced platelet aggregation in rats", "assay": "Thrombin induced rat platelet aggregation after 15 days gavage", "format": "in vivo", "details": "SD rats, 6.75 mg/kg by gavage for 15 days", "source_text": "Platelet aggregation rate is a detection index of platelet function. The higher the platelet aggregation rate, the greater the possibility of thrombosis. In arteriosclerosis, coronary heart disease, cerebral infarction, hypertension, diabetes and other thrombotic diseases, platelet aggregation rate is often increased. […] Therefore, the determination of platelet aggregation rate can be used to observe the curative effect and screen drugs. In this study, thrombin induced rat platelet aggregation model was used to evaluate the inhibitory effect of the traditional Chinese medicine composition on platelet aggregation. […]\nAfter the last administration, 3% Pentobarbital Sodium was injected intraperitoneally for anesthesia (40 mg/kg). […] After 10 minutes of centrifugation at 800 rpm, the upper platelet rich plasma (PRP) was aspirated and the number of platelets was counted. […]\nA small magnetic rod and 300 μl PRP were added into a square cup, which was preheated for 5 minutes in a constant temperature hole, and 300 μl PPP was added into another square cup. […] The maximum platelet aggregation rate was measured, wherein 3-4 parallel tests were performed for each blood sample and the average value was taken."}}}
{"smiles": "COC(=O)[C@H](c1ccccc1Cl)N1CCc2sccc2C1", "note": "[Plavix, Clopidogrel Hydrogen Sulphate]", "values": [{"measurement": "Net weight of suture", "setting": "[1]", "result": "20.2 ± 4.8", "unit": "mg"}, {"measurement": "Maximum platelet aggregation rate", "setting": "[2]", "result": "35.8±29.7", "unit": "%"}]}
